Test results published in patent US20230340011A1 (Asteroid Therapeutics, priority 2022, published 2023).
pEC50, pIC50: −log10 of the molar value.

Legend:
SREBP-2 = SREBP-2 (Homo sapiens (Human), UniProt Q12772); assay: In vitro assay SREBP-2: PathHunter U2OS SREBP-2 Nuclear Translocation Cell Line, U18666A-stimulated; format: cell-based; conditions: PathHunter U2OS SREBP-2 nuclear translocation cells, U18666A 10 μM, overnight (16 hours)
LXRβ = LXRβ (Homo sapiens (Human), UniProt P55055); assay: In vitro assay LXRβ: PathHunter NHR CHO cells, LXRβ / Steroid Receptor Co-activator Peptide enzyme fragment complementation; format: cell-based; conditions: PathHunter NHR CHO cells, full-length human LXRβ and SRCP, chemiluminescent signal; read-out: LXRβ PPI
Sequence of LXRβ (P55055 whole entry, the tested form may be a part): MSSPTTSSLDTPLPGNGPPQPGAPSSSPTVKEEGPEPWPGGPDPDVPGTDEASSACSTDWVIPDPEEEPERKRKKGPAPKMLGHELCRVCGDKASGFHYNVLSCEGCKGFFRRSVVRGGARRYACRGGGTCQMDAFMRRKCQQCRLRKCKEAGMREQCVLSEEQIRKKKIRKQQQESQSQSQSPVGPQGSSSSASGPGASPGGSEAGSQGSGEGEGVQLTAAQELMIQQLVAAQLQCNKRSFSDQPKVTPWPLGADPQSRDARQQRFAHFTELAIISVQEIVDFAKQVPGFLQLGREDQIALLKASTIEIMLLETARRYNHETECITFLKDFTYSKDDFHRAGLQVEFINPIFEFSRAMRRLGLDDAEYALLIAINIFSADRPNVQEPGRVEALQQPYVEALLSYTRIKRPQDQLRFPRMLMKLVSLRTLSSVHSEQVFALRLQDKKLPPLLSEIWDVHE
Method in brief: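 Co-activator recruitment measured by chemiluminescence after signal generation. The CHO line carries full-length human LXRβ tagged with ProLink and an SRCP–enzyme acceptor fusion in the nucleus; cells sat overnight at 37° C before testing, in charcoal-dextran filtered serum medium with 1% final vehicle.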

SMILES	pIC50 (SREBP-2)	pEC50 (LXRβ)
C#CC1(OC(C)C)CCN(C(=O)CC[C@@H](C)[C@H]2CC[C@H]3[C@@H]4CC=C5C[C@@H](O)CC[C@]5(C)[C@H]4CC[C@]23C)CC1 [Example 329, [(1R,3aS,3bS,7S,9aR,9bS,11aR)-7-hydroxy-9a,11a-dimethyl-1H,2H,3H,3aH,3bH,4H,6H,7H,8H,9H,9aH,9bH,10H,11H,11aH-cyclopenta[a]phenanthren-1-yl]-1-[4-ethynyl-4-(propan-2-yloxy)piperidin-1-yl]pentan-1-one]	> 6.60	5.00 to 6.00
C[C@H](CCC(=O)N(C)c1ccncc1)[C@H]1CC[C@H]2[C@@H]3CC=C4C[C@@H](O)CC[C@]4(C)[C@H]3CC[C@]12C [Example 639, (R)-4-((3S,8S,9S,10R,13R,14S,17R)-3-hydroxy-10,13-dimethyl-2,3,4,7,8,9,10,11,12,13,14,15,16,17-tetradecahydro-1H-cyclopenta[a]phenanthren-17-yl)-N-methyl-N-(pyridin-4-yl)pentanamide]	6.00 to 6.60	< 5.00
CC(C)OC(=O)N1CCN(C(=O)CC[C@@H](C)[C@H]2CC[C@H]3[C@@H]4CC=C5C[C@@H](O)CC[C@]5(C)[C@H]4CC[C@]23C)[C@@H](C)C1 [Example 589, Isopropyl(S)-4-((R)-4-((3S,8S,9S,10R,13R,14S,17R)-3-hydroxy-10,13-dimethyl-2,3,4,7,8,9,10,11,12,13,14,15,16,17-tetradecahydro-1H-cyclopenta[a]phenanthren-17-yl)pentanoyl)-3-methylpiperazine-1-carboxylate]	> 6.60	< 5.00
C[C@H](CCC(=O)N1CCN(c2ccnc(N(C)C)n2)CC1)[C@H]1CC[C@H]2[C@@H]3CC=C4C[C@@H](O)CC[C@]4(C)[C@H]3CC[C@]12C [Example 562, (R)-1-(4-(2-(dimethylamino)pyrimidin-4-yl)piperazin-1-yl)-4-((3S,8S,9S,10R,13R,14S,17R)-3-hydroxy-10,13-dimethyl-2,3,4,7,8,9,10,11,12,13,14,15,16,17-tetradecahydro-1H-cyclopenta[a]phenanthren-17-yl)pentan-1-one]	> 6.60	< 5.00
C[C@H](CCC(=O)N(C)C)[C@H]1CC[C@H]2[C@@H]3CC=C4CC(F)(F)CC[C@]4(C)[C@H]3CC[C@]12C [Example 127, (R)-4-((8S,9S,10R,13R,14S,17R)-3,3-difluoro-10,13-dimethyl-2,3,4,7,8,9,10,11,12,13,14,15,16,17-tetradecahydro-1H-cyclopenta[a]phenanthren-17-yl) -N,N-dimethylpentanamide]	< 5.00	< 5.00
C[C@H](CCC(=O)N1CCN(C(=O)C(C)(C)O)[C@@H](C)C1)[C@H]1CC[C@H]2[C@@H]3CC=C4C[C@@H](O)CC[C@]4(C)[C@H]3CC[C@]12C [Example 652, (4R)-4-[(1R,3aS,3bS,7S,9aR,9bS,11aR)-7-hydroxy-9a,11a-dimethyl-1H,2H,3H,3aH,3bH,4H,6H,7H,8H,9H,9aH,9bH,10H,11H, 11 aH-cyclopenta[a]phenanthren-1-yl]-1-[(3 S)-4-(2-hydroxy-2-methylpropanoyl)-3-methylpiperazin-1-yl]pentan-1-one]	> 6.60	< 5.00
COc1cccnc1C1CCN(C(=O)CC[C@@H](C)[C@H]2CC[C@H]3[C@@H]4CC=C5C[C@@H](O)CC[C@]5(C)[C@H]4CC[C@]23C)CC1 [Example 622, (R)-4-((3S,8S,9S,10R,13R,14S,17R)-3-hydroxy-10,13-dimethyl-2,3,4,7,8,9,10,11,12,13,14,15,16,17-tetradecahydro-1H-cyclopenta[a]phenanthren-17-yl)-1-(4-(3-methoxypyridin-2-yl)piperidin-1-yl)pentan-1-one]	> 6.60	< 5.00
C[C@H](CCC(=O)N1CCN(C(=O)c2ccncc2)[C@@H](C)C1)[C@H]1CC[C@H]2[C@@H]3CC=C4C[C@@H](O)CC[C@]4(C)[C@H]3CC[C@]12C [Example 577, (R)-4-((3S,8S,9S,10R,13R,14S,17R)-3-hydroxy-10,13-dimethyl-2,3,4,7,8,9,10,11,12,13,14,15,16,17-tetradecahydro-1H-cyclopenta[a]phenanthren-17-yl)-1-((S)-4-isonicotinoyl-3-methylpiperazin-1-yl)pentan-1-one]	> 6.60	< 5.00
C[C@H](CCC(=O)N1CCC(C)(C(N)=O)CC1)[C@H]1CC[C@H]2[C@@H]3CC=C4C[C@@H](O)CC[C@]4(C)[C@H]3CC[C@]12C [Example 85, 1-((R)-4-((3S,8S,9S,10R,13R,14S,17R)-3-hydroxy-10,13-dimethyl-2,3,4,7,8,9,10,11,12,13,14,15,16,17-tetradecahydro-1H-cyclopenta[a]phenanthren-17-yl)pentanoyl)-4-methylpiperidine-4-carboxamide]	> 6.60	< 5.00
C[C@H](CCC(=O)N1CCOc2cccnc21)[C@H]1CC[C@H]2[C@@H]3CC=C4C[C@@H](O)CC[C@]4(C)[C@H]3CC[C@]12C [Example 626, (4R)-4-[(1R,3aS,3bS,7S,9aR,9bS,11aR)-7-hydroxy-9a,11a-dimethyl-1H,2H,3H,3aH,3bH,4H,6H,7H,8H,9H,9aH,9bH,10H,11H,11aH-cyclopenta[a]phenanthren-1-yl]-1-{2H,3H,4H-pyrido[3,2-b][1,4]oxazin-4-yl}pentan-1-one]	> 6.60	5.00 to 6.00
C[C@H](COc1ccccn1)[C@H]1CC[C@H]2[C@@H]3CC=C4C[C@@H](O)CC[C@]4(C)[C@H]3CC[C@]12C [Example 179, (3S,8S,9S,10R,13S,14S,17R)-10,13-dimethyl-17-((S)-1-(pyridin-2-yloxy)propan-2-yl)-2,3,4,7,8,9,10,11,12,13,14,15,16,17-tetradecahydro-1H-cyclopenta[a]phenanthren-3-ol]	> 6.60	< 5.00
C[C@H](CCC(=O)N1CCC(O)(c2ccccc2)CC1)[C@H]1CC[C@H]2[C@@H]3CC=C4C[C@@H](O)CC[C@]4(C)[C@H]3CC[C@]12C [Example 91, (R)-4-((3S,8S,9S,10R,13R,14S,17R)-3-hydroxy-10,13-dimethyl-2,3,4,7,8,9,10,11,12,13,14,15,16,17-tetradecahydro-1H-cyclopenta[a]phenanthren-17-yl)-1-(4-hydroxy-4-phenylpiperidin-1-yl) pentan-1-one]	> 6.60	< 5.00
COc1cc(N2CCN(C(=O)CC[C@@H](C)[C@H]3CC[C@H]4[C@@H]5CC=C6C[C@@H](O)CC[C@]6(C)[C@H]5CC[C@]34C)CC2)ncn1 [Example 203, (4R)-4-[(1R,3aS,3bS,7S,9aR,9bS,11aR)-7-hydroxy-9a,11a-dimethyl-1H,2H,3H,3aH,3bH,4H,6H,7H,8H,9H,9aH,9bH,10H,11H,11aH-cyclopenta[a]phenanthren-1-yl]-1-[4-(6-methoxypyrimidin-4-yl)piperazin-1-yl]pentan-1-one]	> 6.60	< 5.00
C[C@H](COc1ccccc1)[C@H]1CC[C@H]2[C@@H]3CC=C4C[C@@H](O)CC[C@]4(C)[C@H]3CC[C@]12C [Example 182, (1R,3aS,3bS,7S,9aR,9bS,11aS)-9a,11a-dimethyl-1-[(2S)-1-phenoxypropan-2-yl]-1H,2H,3H,3aH,3bH,4H,6H,7H,8H,9H,9aH,9bH,10H,11H,11aH-cyclopenta[a]phenanthren-7-ol]	6.00 to 6.60	< 5.00
Cc1nnc(N2CCN(C(=O)CC[C@@H](C)[C@H]3CC[C@H]4[C@@H]5CC=C6C[C@@H](O)CC[C@]6(C)[C@H]5CC[C@]34C)C[C@@H]2C)o1 [Example 634, (4R)-4-[(1R,3aS,3bS,7S,9aR,9bS,11aR)-7-hydroxy-9a,11a-dimethyl-1H,2H,3H,3aH,3bH,4H,6H,7H,8H,9H,9aH,9bH,10H,11H,11aH-cyclopenta[a]phenanthren-1-yl]-1-[(3S)-3-methyl-4-(5-methyl-1,3,4-oxadiazol-2-yl)piperazin-1-yl]pentan-1-one]	> 6.60	< 5.00
C[C@H](CCC(=O)N1CCN(C(=O)C2CC2)[C@@H](C)C1)[C@H]1CC[C@H]2[C@@H]3CC=C4C[C@@H](O)CC[C@]4(C)[C@H]3CC[C@]12C [Example 650, (R)-1-((S)-4-(cyclopropanecarbonyl)-3-methylpiperazin-1-yl)-4-((3S,8S,9S,10R,13R,14S,17R)-3-hydroxy-10,13-dimethyl-2,3,4,7,8,9,10,11,12,13,14,15,16,17-tetradecahydro-1H-cyclopenta[a]phenanthren-17-yl)pentan-1-one]	> 6.60	< 5.00
C[C@H](CCC(=O)N1CCCOCC1)[C@H]1CC[C@H]2[C@@H]3CC=C4C[C@@H](O)CC[C@]4(C)[C@H]3CC[C@]12C [Example 81, (R)-4-((3S,8S,9S,10R,13R,14S,17R)-3-hydroxy-10,13-dimethyl-2,3,4,7,8,9,10,11,12,13,14,15,16,17-tetradecahydro-1H-cyclopenta[a]phenanthren-17-yl)-1-(1,4-oxazepan-4-yl)pentan-1-one]	> 6.60	6.00 to 6.60
Cc1cc(N2CCN(C(=O)CC[C@@H](C)[C@H]3CC[C@H]4[C@@H]5CC=C6C[C@@H](O)CC[C@]6(C)[C@H]5CC[C@]34C)CC2)ncn1 [Example 206, (4R)-4-[(1R,3aS,3bS,7S,9aR,9bS,11aR)-7-hydroxy-9a,11a-dimethyl-1H,2H,3H,3aH,3bH,4H,6H,7H,8H,9H,9aH,9bH,10H,11H,11aH-cyclopenta[a]phenanthren-1-yl]-1-[4-(6-methylpyrimidin-4-yl)piperazin-1-yl]pentan-1-one]	> 6.60	< 5.00
